This passage reports DC50 results from US20230295197A1, “STAT5 and STAT6 Degraders and Uses Thereof” (REGENTS OF THE UNIVERSITY OF MICHICAN, priority 2022, published 2023).

The test deals with STAT5. Put plainly: Immunoblotting (Western blot) analysis of STAT5 degradation efficiency of degraders in treated cells. Format: cell-based. The method, then:
Evaluation of the degradation efficiency of degraders may be accomplished by immunoblotting analysis. The representative general protocol is the following:
Cells are maintained in the appropriate culture medium with 10% FBS at 37° C. and an atmosphere of 5% CO2. Cell lines are used within three months of thawing fresh vials. Cells are lysed 1× Cell Lysis Buffer (Cell Signaling Technology, #9803), resolved by SDS-PAGE NuPAGE gel (Thermo Fisher Scientific), and transferred to a PVDF membrane (Millipore). Membranes are blocked using Odyssey TBS Blocker Buffer (LI-COR). IRDye 680RD and 800CW Dye-labeled secondary antibodies (LI-COR) are used. The washed membranes are scanned using Odyssey CLx imager (LI-COR). The intensity of Western blot signaling is quantitated using the Odyssey software. Primary antibodies used are: STAT5 Rabbit mAb (Cell Signaling Technology, #94205), STAT6 Rabbit mAb (Cell Signaling Technology, #5397) and GAPDH mouse monoclonal antibody (Santa Cruz Biotechnology, sc-47724).
To evaluate the degradation efficiency of degraders, immunoblotting analysis was performed. The general protocol is the following.
About 1 million cells for each data point were treated with compounds at indicated concentrations and durations. Untreated and treated cells in cell culture medium were transferred into tubes, followed by centrifugation at 3,000 rpm and 4° C. for 6 min Supernatants were removed from tubes and radioimmunoprecipitation assay (RIPA) lysis buffer supplemented with 1% protease inhibitor cocktail (Fisher Scientific cat. PI87786) and phosphatase inhibitor (Roche cat. 04906837001) were added to tubes containing the remaining cell pellets. The tubes were then left on ice for 30 min and placed in a −80° C. freezer. Subsequently they were thawed in 37° C. water, then centrifuged at 14,000 rpm for 15 min and the cell lysates transferred to new tubes. The concentration of total proteins in each tube was calculated using the Pierce BCA protein Assay kit (cat. 23225). Based on the calculated protein concentration, cell lysates containing approximately the same amount of proteins were transferred to new tubes, then distilled water and 4× Protein Sample Loading Buffer for Western Blots (LI-COR cat. 928-40004) supplemented with 20% of mercaptoethanol (Sigma Aldrich cat. M6250) were added on ice. The cell lysates were then reduced and denatured at 95° C. for 5 min. From the tubes containing cell lysates an equal amount of protein samples (20-40 μg) was loaded into precast 8%, 10%, 4%-12%, or 4%-20% Tris-glycine gels (Novex) filled with Tris-glycine SDS running buffer. After the proteins were resolved, they were transferred onto Immobile-FL PVDF Membrane (Millipore Sigma cat. IPFL00010), using Mini Trans-Blot Electrophoretic Transfer Cell (Bio-Rad 1703930). The membranes were blocked with Intercept Blocking Buffer (LI-COR cat. 927-70001) in LI-COR Western Blot boxes for 1 h at rt. The membranes were washed with 1× Tris-buffered saline-Tween-20 (TBST, 1× solution was made from 20×TBST solution, ThermoFisher Scientific cat. 28360) for 5 min 4 times. The membranes were incubated overnight at 4° C. in Intercept Blocking Buffer supplemented with primary antibodies (normally antibody:buffer 1:1000) and Tween-20. The membranes were washed with TBST for 5 min 4 times and were incubated with Intercept Blocking Buffer supplemented with IRDye 800CE Secondary Antibodies, IRDye 680RD Secondary Antibodies (LI-COR biosciences), Tween-20, and 10% SDS solution, for 1 h at rt. The membranes were then washed with TBST for 5 min 4 times and rinsed with deionized water before drying and scanning with Odyssey Dlx Amazing System (LI-COR). The immunoblots were finally quantified by the software.

Setting [1] is: MOLM-16 cells, numeric bound, read-out: DC50 S5 MOLM-16.
Setting [2] is: SKNO1 cells, read-out: DC50 S5 SKNO1.
The mark [3] stands for this setting: KU-812 cells, read-out: DC50 S5 KU-812.

Read-outs that look alike come from different tables or passages of the source.

With `CC(C)(C)[C@H](NC(=O)c1cc2cc(C(F)(F)P(=O)(O)O)ccc2s1)C(=O)N1CCC[C@H]1C(=O)N(CCC(=O)NCCCCC#Cc1cccc2c1CN(C1CCC(=O)NC1=O)C2=O)c1ccc(Cl)c(F)c1` (stereo partly drawn) [Compound 639, ((2-(((2S)-1-((2S)-2-((4-chloro-3-fluorophenyl)(3-((6-(2-(2,6-dioxopiperidin-3-yl)-1-oxoisoindolin-4-yl)hex-5-yn-1-yl)amino)-3-oxopropyl)carbamoyl)pyrrolidin-1-yl)-3,3-dimethyl-1-oxobutan-2-yl)carbamoyl)benzo[b]thiophen-5-yl)difluoromethyl)phosphonic acid], the half-maximal degradation concentration (DC50) reads like this: under setting [1], more than 300 nM; under setting [2], more than 10000 nM.

In the case of `CC(C)(C)[C@H](NC(=O)c1cc2cc(C(F)(F)P(=O)(O)O)ccc2s1)C(=O)N1C[C@H](OCc2ccccc2)C[C@H]1C(=O)N(CCC(=O)NCCCC#Cc1cccc2c1CN(C1CCC(=O)NC1=O)C2=O)c1ccc(Br)cc1` (stereo partly shown) [Compound 618], the half-maximal degradation concentration (DC50) under setting [1] is more than 300 nM.

In the case of `CN(CCCC#Cc1cccc2c1CN(C1CCC(=O)NC1=O)C2=O)C(=O)CCN(C(=O)[C@@H]1CCCN1C(=O)[C@H](CCc1ccccc1)NC(=O)c1cc2cc(C(F)(F)P(=O)(O)O)ccc2s1)c1ccc(-c2nccs2)cc1` (stereo partly drawn) [Compound 682, ((2-(((2S)-1-((2S)-2-((3-((5-(2-(2,6-dioxopiperidin-3-yl)-1-oxoisoindolin-4-yl)pent-4-yn-1-yl)(methyl)amino)-3-oxopropyl)(4-(thiazol-2-yl)phenyl)carbamoyl)pyrrolidin-1-yl)-1-oxo-4-phenylbutan-2-yl)carbamoyl)benzo[b]thiophen-5-yl)difluoromethyl)phosphonic acid], the half-maximal degradation concentration (DC50) runs as follows: under setting [3], 100 to 1000 nM; under setting [2], 100 to 1000 nM.

Regarding `CC(C)(C)[C@H](NC(=O)c1cc2cc(C(F)(F)P(=O)(O)O)ccc2s1)C(=O)N1CCC[C@H]1C(=O)N(CCC(=O)NCCCC#Cc1cccc2c1CN(C1CCC(=O)NC1=O)C2=O)c1cccc(C#N)c1` (stereo partly drawn) [Compound 643, ((2-(((2S)-1-((2S)-2-((3-cyanophenyl)(3-((5-(2-(2,6-dioxopiperidin-3-yl)-1-oxoisoindolin-4-yl)pent-4-yn-1-yl)amino)-3-oxopropyl)carbamoyl)pyrrolidin-1-yl)-3,3-dimethyl-1-oxobutan-2-yl)carbamoyl)benzo[b]thiophen-5-yl)difluoromethyl)phosphonic acid], the DC50 is more than 300 nM under setting [1] and more than 10000 nM under setting [2].

For the compound `CC(C)(C)[C@H](NC(=O)c1cc2cc(C(F)(F)P(=O)(O)O)ccc2s1)C(=O)N1CCC[C@H]1C(=O)N(CCC(=O)NCCCC#Cc1cccc2c1CN(C1CCC(=O)NC1=O)C2=O)c1cccc(-c2ccccc2)c1` (stereo partly drawn) [Compound 649, ((2-(((2S)-1-((2S)-2-([1,1′-biphenyl]-3-yl(3-((5-(2-(2,6-dioxopiperidin-3-yl)-1-oxoisoindolin-4-yl)pent-4-yn-1-yl)amino)-3-oxopropyl)carbamoyl)pyrrolidin-1-yl)-3,3-dimethyl-1-oxobutan-2-yl)carbamoyl)benzo[b]thiophen-5-yl)difluoromethyl)phosphonic acid], the half-maximal degradation concentration (DC50) reads like this: under setting [1], more than 300 nM; under setting [2], 1000 to 10000 nM.

As for `CC(C)(C)[C@H](NC(=O)c1cc2cc(C(F)(F)P(=O)(O)O)ccc2s1)C(=O)N1CCC[C@H]1C(=O)N(CCC(=O)NCCCC#Cc1cccc2c1CN(C1CCC(=O)NC1=O)C2=O)c1ccc(Cl)cc1` (stereo partly drawn) [Compound 635, ((2-(((2S)-1-((2S)-2-((4-chlorophenyl)(3-((5-(2-(2,6-dioxopiperidin-3-yl)-1-oxoisoindolin-4-yl)pent-4-yn-1-yl)amino)-3-oxopropyl)carbamoyl)pyrrolidin-1-yl)-3,3-dimethyl-1-oxobutan-2-yl)carbamoyl)benzo[b]thiophen-5-yl)difluoromethyl)phosphonic acid], the DC50 runs as follows: under setting [3], 1000 to 10000 nM; under setting [1], more than 300 nM; under setting [2], 1000 to 10000 nM.

Consider `CCN1CC[C@H]2CC[C@@H](C(=O)N(CCC(=O)NCCCC#Cc3cccc4c3CN(C3CCC(=O)NC3=O)C4=O)c3ccc(Br)cc3)N2C(=O)[C@@H](NC(=O)c2cc3cc(C(F)(F)P(=O)(O)O)ccc3s2)C1` (stereo partly drawn) [Compound 627, ((2-(((5S,8S,10aR)-8-((4-bromophenyl)(3-((5-(2-(2,6-dioxopiperidin-3-yl)-1-oxoisoindolin-4-yl)pent-4-yn-1-yl)amino)-3-oxopropyl)carbamoyl)-3-ethyl-6-oxodecahydropyrrolo[1,2-a][1,5]diazocin-5-yl)carbamoyl)benzo[b]thiophen-5-yl)difluoromethyl)phosphonic acid], for which the half-maximal degradation concentration (DC50) under setting [1] was more than 300 nM.

Turning to `CN(CCCC#Cc1cccc2c1CN(C1CCC(=O)NC1=O)C2=O)C(=O)CCN(C(=O)[C@@H]1CCCN1C(=O)[C@@H](NC(=O)c1cc2cc(C(F)(F)P(=O)(O)O)ccc2s1)C(C)(C)C)c1ccc2sccc2c1` (stereo partly drawn) [Compound 685, ((2-(((2S)-1-((2S)-2-(benzo[b]thiophen-5-yl(3-((5-(2-(2,6-dioxopiperidin-3-yl)-1-oxoisoindolin-4-yl)pent-4-yn-1-yl)(methyl)amino)-3-oxopropyl)carbamoyl)pyrrolidin-1-yl)-3,3-dimethyl-1-oxobutan-2-yl)carbamoyl)benzo[b]thiophen-5-yl)difluoromethyl)phosphonic acid], the 50% degradation concentration (DC50) lay within 100 to 1000 nM under setting [3] and 100 to 1000 nM under setting [2].

In the case of `CC(C)(C)[C@H](NC(=O)c1cc2cc(C(F)(F)P(=O)(O)O)ccc2s1)C(=O)N1C[C@H](OCc2ccccc2)C[C@H]1C(=O)N(CCC(=O)NCCCCCC#Cc1cccc2c1CN(C1CCC(=O)NC1=O)C2=O)c1ccc(Br)cc1` (stereo partly drawn) [Compound 620, ((2-(((2S)-1-((2S,4R)-4-(benzyloxy)-2-((4-bromophenyl)(3-((7-(2-(2,6-dioxopiperidin-3-yl)-1-oxoisoindolin-4-yl)hept-6-yn-1-yl)amino)-3-oxopropyl)carbamoyl)pyrrolidin-1-yl)-3,3-dimethyl-1-oxobutan-2-yl)carbamoyl)benzo[b]thiophen-5-yl)difluoromethyl)phosphonic acid], the half-maximal degradation concentration (DC50) under setting [1] is more than 300 nM.

`CC(C)(C)[C@H](NC(=O)c1cc2cc(C(F)(F)P(=O)(O)O)ccc2s1)C(=O)N1C[C@H](OCc2ccccc2)C[C@H]1C(=O)N(CCC(=O)N1CCC(C#Cc2cccc3c2CN(C2CCC(=O)NC2=O)C3=O)CC1)c1ccc(Br)cc1` (stereo partly drawn) [Compound 621, ((2-(((2S)-1-((2S,4R)-4-(benzyloxy)-2-((4-bromophenyl)(3-(4-((2-(2,6-dioxopiperidin-3-yl)-1-oxoisoindolin-4-yl)ethynyl)piperidin-1-yl)-3-oxopropyl)carbamoyl)pyrrolidin-1-yl)-3,3-dimethyl-1-oxobutan-2-yl)carbamoyl)benzo[b]thiophen-5-yl)difluoromethyl)phosphonic acid]: the 50% degradation concentration (DC50) under setting [1] was more than 300 nM.

Take `CC(C)(C)[C@H](NC(=O)c1cc2cc(C(F)(F)P(=O)(O)O)ccc2s1)C(=O)N1CCC[C@H]1C(=O)N(CCC(=O)NCCCC#Cc1cccc2c1CN(C1CCC(=O)NC1=O)C2=O)c1ccc(F)cc1` (stereo partly drawn) [Compound 634, ((2-(((2S)-1-((2S)-2-((3-((5-(2-(2,6-dioxopiperidin-3-yl)-1-oxoisoindolin-4-yl)pent-4-yn-1-yl)amino)-3-oxopropyl)(4-fluorophenyl)carbamoyl)pyrrolidin-1-yl)-3,3-dimethyl-1-oxobutan-2-yl)carbamoyl)benzo[b]thiophen-5-yl)difluoromethyl)phosphonic acid]: the 50% degradation concentration (DC50) is more than 300 nM under setting [1] and more than 10000 nM under setting [2].
